Earlier results on 1 compound are cited in US20260117185A1, “ENHANCEMENT OF FIBROBLAST PLASTICITY FOR TREATMENT OF DISC DEGENERATION” (SPINALCYTE, LLC, priority 2018, published 2026).

The test system of one data set is mesenchymal stem cells. The settings on record: culture of cells with valproic acid.
For data set [1], the system named is in vitro pre-mature senescence model. The conditions noted are these: valproic acid treatment.
Where [2] appears, read: through the suppression of the p16/p21 pathway.

Turning to `CCCC(CCC)C(=O)O` [valproic acid], the “immune regulatory and metabolic properties of mesenchymal stem cells” value in the data set on mesenchymal stem cells was “enhanced immune regulatory and metabolic properties”. Also, the “G2/M phase blockage derived from the senescence stress” value in data set [1] is reported as “inhibited the G2/M phase blockage”. In addition, in data set [1] (setting [2]), the apoptosis entry was “inhibited apoptosis” and the cell proliferation entry was “increased cell proliferation”.
